Reference: patent publication EP0092173A1, “11-Beta-chlorosteroids, process for their preparation and pharmaceutical compositions containing them” (SCHERING AKTIENGESELLSCHAFT, priority 1982, dated 1983)

Legend:
[1] = test system: infantilen weiblichen Kaninchen; assay: Clauberg test for progestational (gestagenic) activity after oral administration; type: in vivo; conditions: for McPhail: infantile female rabbits; for Schwellendosis (McPhail 1,5) für die gestagene Wirkung: minimum amount for a positive effect (McPhail 1,5)
Description: Die gestagene Wirkung wurde im üblichen Clauberg-Test nach oraler Applikation an infantilen weiblichen Kaninchen ermittelt.
Die zur Erzielung eines positiven Effekts benötigte Mindestmenge wird durch den McPhail-Wert 1,5 ausgedrückt.
In der folgenden Tabelle werden die Ergebnisse des Tests zusmmengestellt.

Androgen-Rezeptor = Androgen-Rezeptor (Homo sapiens, UniProt P10275); assay: Androgen receptor test (competition factor); type: binding; conditions: assessment in words, based on the competition factor
Androgen-Rezeptor, sequence (P10275 whole entry): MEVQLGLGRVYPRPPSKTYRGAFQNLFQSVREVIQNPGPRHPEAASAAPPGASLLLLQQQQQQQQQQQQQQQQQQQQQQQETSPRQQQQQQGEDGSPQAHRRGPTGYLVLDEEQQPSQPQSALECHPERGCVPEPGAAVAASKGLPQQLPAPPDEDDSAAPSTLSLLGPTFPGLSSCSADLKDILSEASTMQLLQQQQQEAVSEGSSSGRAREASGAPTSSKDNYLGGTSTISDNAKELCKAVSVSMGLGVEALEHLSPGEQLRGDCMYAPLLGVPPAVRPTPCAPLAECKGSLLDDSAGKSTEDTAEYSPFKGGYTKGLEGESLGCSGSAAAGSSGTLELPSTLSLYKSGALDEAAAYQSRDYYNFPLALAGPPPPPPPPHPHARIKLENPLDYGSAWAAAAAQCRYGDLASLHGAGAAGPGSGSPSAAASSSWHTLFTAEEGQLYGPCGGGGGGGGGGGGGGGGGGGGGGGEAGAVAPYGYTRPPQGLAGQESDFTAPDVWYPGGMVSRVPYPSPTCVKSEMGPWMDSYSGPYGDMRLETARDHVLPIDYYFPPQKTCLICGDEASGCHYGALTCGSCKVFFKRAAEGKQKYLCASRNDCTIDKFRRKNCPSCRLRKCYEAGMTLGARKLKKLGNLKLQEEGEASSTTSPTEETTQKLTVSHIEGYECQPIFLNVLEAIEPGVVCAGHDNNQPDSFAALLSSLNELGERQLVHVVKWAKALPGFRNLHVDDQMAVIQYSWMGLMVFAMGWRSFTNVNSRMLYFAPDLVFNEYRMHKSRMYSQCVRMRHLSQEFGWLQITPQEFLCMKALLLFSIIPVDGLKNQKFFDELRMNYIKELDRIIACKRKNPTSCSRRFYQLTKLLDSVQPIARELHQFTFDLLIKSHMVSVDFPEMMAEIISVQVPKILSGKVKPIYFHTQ

## CC[C@]12C[C@H](Cl)[C@H]3[C@@H](CCC4=CC(=O)CC[C@@H]43)[C@@H]1CC[C@@]2(O)C#CCl [Verbindung A, 11ß-Chlor-17α-chlorethinyl-17ß-hydroxy-18-methyl-4-östren-3-on]
[1]; Dosis 0,01 mg
  McPhail: 1,9
[1]; Dosis 0,1 mg
  McPhail: 3,3
[1]; Dosis 0,03 mg
  McPhail: 3,0
[1]; Dosis 0,003 mg
  McPhail: 1,2
[1]
  Schwellendosis (McPhail 1,5) für die gestagene Wirkung: ~0,003 mg
Androgen-Rezeptor
  androgene Nebenwirkung: nur eine ganz geringfügige androgene Nebenwirkung

## C#C[C@]1(O)CC[C@H]2[C@@H]3CCC4=CC(=O)CC[C@@H]4[C@H]3[C@@H](Cl)C[C@@]21CC [Verbindung B, 11ß-Chlor-17α-ethinyl-17ß-hydroxy-18-methyl-4-östren-3-on, reference compound]
[1]; Dosis 0,01 mg
  McPhail: 1,4
[1]; Dosis 0,03 mg
  McPhail: 2,5
[1]; Dosis 0,003 mg
  McPhail: 1,1
[1]
  Schwellendosis (McPhail 1,5) für die gestagene Wirkung: ~0,01 mg
Androgen-Rezeptor
  androgene Nebenwirkung: noch schwach androgen wirksam
